Results: patent US7884067B2, “Peptides derived from cadherin and methods of use thereof” (Mount Sinai School of Medicine of New York University, priority 2001, dated 2011)

Key:
A431 cells = assay: Laser scanning confocal microscopy of ionomycin-induced cell-cell dissociation; assay type: cell-based, human; details: 30 minutes pre-incubation with L-685,458, then ionomycin 45 minutes
Description: Immunoprecipitations (IPs), immunoblotting, immunofluorescence and confocal microscopy. For WB analysis of cell extracts, cells were washed with PBS and then solubilized in RIPA buffer. For IPs cells were solubilized in Hepes buffer (25 mM Hepes [pH 7.4], 150 mM NaCl, 1× Complete protease inhibitor cocktail, Roche) containing 1% digitonin (IPs with I-R222 and PI-R222 antibodies) or 1% Triton X-100 (IPs with β-catenin and desmoglein antibodies). Following centrifugation at 17,000×g for 10 min, supernatants (1 mg protein) were pre-cleared with protein A- or protein G-agarose (Pierce) for 2 hours. Supernatants were then incubated with antibodies overnight at 4° C. and treated for 2 hours with protein A-agarose (polyclonal antibodies) or with protein G-agarose (monoclonal antibodies). IPs were washed with Hepes buffer containing either 1% digitonin or 1% Triton X-100 and analyzed by SDS-PAGE. Immunofluorescence and confocal microscopy was performed as described by Georgakopoulos et al., (1999). Briefly, cells were plated on 22×22 mm collagen-coated glass coverslips, fixed in cold methanol for 10 min at −20° C. Following washing in TBS (25 mM Tris-HCl [pH 7.4], 150 mM NaCl), cells were treated with 10% goat serum in SuperBlock (Pierce) for 1 hour, incubated overnight with primary antibody (1:100), washed in TBS and then were incubated with species specific Alexa Fluor™ secondary antibody conjugates (Molecular Probes). Cells were washed with TBS, mounted with Prolong antifade kit (Molecular Probes), and photographed on a Leica confocal laser scanning microscope.
The PS1/γ-secretase role in the disassembly of CAJ was further examined using laser scanning confocal microscopy (LSCM). A431 cells were pre-incubated for 30 minutes in the absence or presence of L-685,458 and then treated for 45 minutes with ionomycin. Following the ionomycin-induced cell-cell dissociation, the distribution of PS1, E-cadherin, β-catenin and α-catenin was analyzed by LSCM using the constant detector setting. […]

[1] = system: CRE-dependent transactivation; assay: CRE-dependent transactivation (luciferase) in L cells; assay type: cell-based; details: L cells transfected with increasing amount of pN-Cad/CTF2, FIG. 9A
Description: Transactivation assays. CRE-dependent transactivation was measured in the absence or presence of overexpression of PKA (pFC-PKA, Stratagene) by cotransfection with CRE-luciferase reporter plasmid (pCRE-Luc, Stratagene) and pSV-β-galactosidase vector (Promega) to evaluate transfection efficiency. CHOP-mediated transactivation was measured by cotransfection with the Gal4-fusion trans-activator plasmids (pFA-CHOP and pFR-Luc, Stratagene). 30 hours after transfection, luciferase and β-galactosidase activities were determined following manufacturer's instructions using a TD-20/20 luminometer (Turner Designs) and a DU-64 spectrophotometer (Beckman). Values were normalized to β-galactosidase activity and protein concentration.
Stimulation of synaptic NMDA receptor leads to phosphorylation of transcription factor CREB that then recruits transcription co-activator CBP, a process ultimately leading to activation of CREB-mediated gene expression (Impey and Goodman (2001) Sci STKE, PE1). […] CRE-dependent transactivation was measured in the absence (−) or presence (+) of […] PKA (pFC-PKA) using CRE-luciferase reporter plasmid (pCRE-Luc) and pSV-β-galactosidase vector. CHOP-mediated transactivation was measured by […] with the Gal4-fusion trans-activator plasmids (pFA-CHOP and pFR-Luc) and pSV-β-galactosidase vector. […]

| Molecule | loss of cell surface staining of all epitopes (A431 cells) | constitutive and PKA-stimulated CRE-dependent transactivation [1] |
| --- | --- | --- |
| CC(C)C[C@H](NC(=O)[C@H](Cc1ccccc1)C[C@@H](O)[C@H](Cc1ccccc1)NC(=O)OC(C)(C)C)C(=O)N[C@@H](Cc1ccccc1)C(N)=O [L-685,458] | significantly delayed | – |
| N-Cad/CTF2: chicken cytoplasmic domain of N-cadherin (N-Cad/CTF2) inserted into vector pECE, expressed in L cells (protein) KRRDKERQAKQLLIDPEDDVRDNILKYDEEGGGEEDQDYDLSQLQQPDTVEPDAIKPVGIRRLDERPIHAEPQYPVRSAAPHPGDIGDFINEGLKAADNDPTAPPYDSLLVFDYEGSGSTAGSLSSLNSSSSGGEQDYDYLNDWGPRFKKLADMYGGGDD | – | inhibits both constitutive and PKA-stimulated CRE-dependent transactivation in a dose-dependent manner |
